According to US9993494B2, “Compositions and methods for treating fibrotic disease” (eFFECTOR Therapeutics, Inc., priority 2014, dated 2018):

Test system: normal human lung fibroblasts
Test: Ribosomal profiling: translational efficiency in TGFβ-treated fibroblasts
Type: cell-based
Details: TGFβ-treated fibroblasts
Procedure: Ribosomal profiling allows for measurement of changes in transcription and translation on a genome-wide basis accompanying TGFβ-dependent transformation of fibroblasts to myofibroblasts. Ribosomal profiles of the TGFβ-treated fibroblasts from Example 1 (about 6×10^6 cells/10 cm plate) were prepared and analyzed for changes in translational efficiencies with respect to potential disease-associated cellular changes accompanying this TGFβ-induced transformation.
Briefly, cells were washed with cold PBS supplemented with cycloheximide and lysed with 1× mammalian cell lysis buffer for 10 minutes on ice. Lysates were clarified by centrifugation for 10 minutes at 14,000 rpm and supernatants were collected. Cell lysates were processed to generate ribosomal protected fragments and total mRNA according to the instructions included with the ARTseq Ribosome Profiling Kit (Illumina, San Diego, Calif.). Sequencing of total RNA (RNA) and of ribosome-protected fragments of RNA (RPF) was carried out using RNA-Seq methodology according to the manufacturer's instructions (Illumina). To analyze the ribosomal profiles, RNA-Seq reads were processed with tools from the FASTX-Toolkit (fastq_quality_trimmer, fastx_clipper and fastx_trimmer). Unprocessed and processed reads were evaluated for a variety of quality measures using FastQC, and processed reads were mapped to the human genome using TopHat (see, e.g., Trapnell et al., Bioinformatics 25:1105, 2009). Gene-by-gene assessment of the number of fragments strictly and uniquely mapping to the coding region of each gene was conducted using HTSeq-count, a component of the HTSeq package. […] Genes with low counts in either RPF or RNA were excluded from differential analyses. Pathway and network analyses of differential data were conducted using Ingenuity Pathway Analysis (IPA).

COC(=O)[C@H]1[C@@H](O)[C@@]2(O)c3c(OC)cc(O[C@@H]4O[C@@H]([C@H](O)CO)CO[C@H]4OC)cc3O[C@@]2(c2ccc(OC)cc2)[C@@H]1c1ccccc1 [Silvestrol]
+++ (+++ = >2.0): renormalizing the translational profile of RASD1 (ENSG00000108551) | renormalizing the translational profile of CIT (ENSG00000122966)
− (− = <0.9): renormalizing the translational profile of KITLG (ENSG00000049130) | renormalizing the translational profile of ADAMTS6 (ENSG00000049192) | renormalizing the translational profile of LETMD1 (ENSG00000050426) | renormalizing the translational profile of EIF4B (ENSG00000063046) | renormalizing the translational profile of RPL18 (ENSG00000063177) | renormalizing the translational profile of HIPK2 (ENSG00000064393) | renormalizing the translational profile of RASSF1 (ENSG00000068028) | renormalizing the translational profile of PABPC1 (ENSG00000070756) | renormalizing the translational profile of RPL31 (ENSG00000071082) | renormalizing the translational profile of AURKA (ENSG00000087586) | renormalizing the translational profile of RPL6 (ENSG00000089009) | renormalizing the translational profile of P2RX7 (ENSG00000089041) | renormalizing the translational profile of KDM2B (ENSG00000089094) | renormalizing the translational profile of RPLP0 (ENSG00000089157) | renormalizing the translational profile of IGBP1 (ENSG00000089289) | renormalizing the translational profile of FMO2 (ENSG00000094963) | renormalizing the translational profile of ACOT7 (ENSG00000097021) | renormalizing the translational profile of ATP5D (ENSG00000099624) | renormalizing the translational profile of LGALS1 (ENSG00000100097) | renormalizing the translational profile of EIF3L (ENSG00000100129) | renormalizing the translational profile of RPL3 (ENSG00000100316) | renormalizing the translational profile of AMMECR1 (ENSG00000101935) | renormalizing the translational profile of PLP2 (ENSG00000102007) | renormalizing the translational profile of EIF3E (ENSG00000104408) | renormalizing the translational profile of EEF1D (ENSG00000104529) | renormalizing the translational profile of C19orf53 (ENSG00000104979) | renormalizing the translational profile of GLTSCR2 (ENSG00000105373) | renormalizing the translational profile of RAB3D (ENSG00000105514) | renormalizing the translational profile of RPL18A (ENSG00000105640) | renormalizing the translational profile of COMP (ENSG00000105664) | renormalizing the translational profile of GDF10 (ENSG00000107623) | renormalizing the translational profile of RPL28 (ENSG00000108107) | renormalizing the translational profile of RPL19 (ENSG00000108298) | renormalizing the translational profile of NAT9 (ENSG00000109065) | renormalizing the translational profile of RPL34 (ENSG00000109475) | renormalizing the translational profile of CRYAB (ENSG00000109846) | renormalizing the translational profile of GAPDH (ENSG00000111640) | renormalizing the translational profile of C12orf57 (ENSG00000111678) | renormalizing the translational profile of MDFI (ENSG00000112559) | renormalizing the translational profile of RPL24 (ENSG00000114391) | renormalizing the translational profile of EEF1B2 (ENSG00000114942) | renormalizing the translational profile of IFIH1 (ENSG00000115267) | renormalizing the translational profile of DPH5 (ENSG00000117543) | renormalizing the translational profile of PPL (ENSG00000118898) | renormalizing the translational profile of PLEKHG1 (ENSG00000120278) | renormalizing the translational profile of LIAS (ENSG00000121897) | renormalizing the translational profile of GPSM2 (ENSG00000121957) | renormalizing the translational profile of RPL21 (ENSG00000122026) | renormalizing the translational profile of RPL5 (ENSG00000122406) | renormalizing the translational profile of RPL23 (ENSG00000125691)
++ (++ = 1.5 to 2.0): renormalizing the translational profile of PLEKHA5 (ENSG00000052126) | renormalizing the translational profile of PLD1 (ENSG00000075651) | renormalizing the translational profile of EDN1 (ENSG00000078401)
+ (+ = 0.9 to 1.5): renormalizing the translational profile of DNASE1L1 (ENSG00000013563) | renormalizing the translational profile of ASPM (ENSG00000066279) | renormalizing the translational profile of EPB41L1 (ENSG00000088367) | renormalizing the translational profile of IRAK3 (ENSG00000090376) | renormalizing the translational profile of PABPC4 (ENSG00000090621) | renormalizing the translational profile of CEP192 (ENSG00000101639) | renormalizing the translational profile of GLCCI1 (ENSG00000106415) | renormalizing the translational profile of HBEGF (ENSG00000113070) | renormalizing the translational profile of INHBA (ENSG00000122641)
